Results on 5 compounds are retold here after patent publication US9669003B2, “Use of flavone and flavanone derivatives in preparation of sedative and hypnotic drugs” (priority 2012, dated 2017).

Type in all cases: in vivo
For experiment [1], the system named is Kunming mice. The experiment in a line: Influence on hypnosis effect with pentobarbital sodium doses at the threshold (50 mg/kg i.p.). The following applies: pentobarbital sodium 50 mg/kg i.p. 60 min later, x ± s, n = 10. Put shortly:
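Kunming mice (10/group, half each sex) received compound in 0.5% CMC-Na intragastrically at 25, 50 or 100 mg/kg; 60 min later given 0.3% sodium pentobarbital 50 mg/kg i.p. Sleep latency and duration recorded by loss of righting reflex over 1 min; ANOVA and χ2 for sleep incidence.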

For experiment [2], the system named is Kunming mice. The experiment in a line: Influence on hypnosis effect with pentobarbital sodium doses below the threshold (25 mg/kg i.p.). The following applies: pentobarbital sodium 25 mg/kg i.p. 60 min later, sleep observed in 30 min, n = 10. In a few lines:
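Kunming mice (10 per group, half female) given single oral doses of 25, 50 or 100 mg/kg in 0.5% CMC-Na; 60 min later pentobarbital sodium 25 mg/kg i.p. Sleep (righting reflex lost >1 min) scored within 30 min as percentage asleep, χ2 test.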

The test system of experiment [3] is Kunming mice. Kind of experiment: Influence on autonomic activity of normal mice (ZIL-2 mice autonomic activity meter, counts within 10 min). The settings on record: intragastric, x ± s, n = 10; for Times of activities in 1 h after drug administration/10 min: 1 h after administration; for Times of activities in 2 h after drug administration/10 min: 2 h after administration; for Times of activities in 24 h after drug administration/10 min: 24 h after administration. In a few lines:
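Kunming mice (10 per group, half each sex) were dosed at 25, 50 or 100 mg/kg in 0.5% CMC-Na. Spontaneous activity counts over 10 min were recorded at 1 h, 2 h and 24 h post-dose. Groups were compared by ANOVA with Dunnett's test after Levene's check.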

The mark [4] stands for this setting: 25 mg/kg intragastric single dose.
The mark [5] stands for this setting: 50 mg/kg intragastric single dose.
Where [6] appears, read: 100 mg/kg intragastric single dose.
[7] abbreviates: test drug 25 mg/kg intragastric single dose.
Where [8] appears, read: test drug 50 mg/kg intragastric single dose.
[9] abbreviates: test drug 100 mg/kg intragastric single dose.

Marks after values point to notes of the source that are not given here.

On to `COc1cc(-c2cc(=O)c3c(OC)c(OC)c(OC)cc3o2)cc(OC)c1OC` [Example 13, 5,6,7,3′,4′,5′-hexamethoxyl-flavone], for which the results for the duration of sleep in the experiment on Kunming mice [1] (setting [4]), in the experiment with Kunming mice [1] (setting [5]) and with Kunming mice [1] (setting [6]) were 39.25 ± 17.25 min, 57.33 ± 29.41 min and 59.23 ± 25.36 min, respectively. The time to sleep is recorded as 4.26 ± 1.23 min in the experiment on Kunming mice [1] (setting [4]), 3.93 ± 1.15 min with Kunming mice [1] (setting [5]) and 3.83 ± 1.21 min in the experiment on Kunming mice [1] (setting [6]). The “Number of sleeping animals” value is recorded as 4 in the experiment with Kunming mice [2] (setting [7]), 6 in the experiment with Kunming mice [2] (setting [8]) and 7 in the experiment on Kunming mice [2] (setting [9]). The “rate of sleeping (%)” value is 40* % in the experiment with Kunming mice [2] (setting [7]), 60** % in the experiment on Kunming mice [2] (setting [8]) and 70** % in the experiment on Kunming mice [2] (setting [9]). The “Times of activities in 1 h after drug administration/10 min” value (“Times of activities in 1 h” for short) in the experiment with Kunming mice [3] (25 mg/kg) is given as 293.2 ± 47.1 /10 min; in the experiment with Kunming mice [3] (50 mg/kg), 280.7 ± 61.3 /10 min; in the experiment with Kunming mice [3] (100 mg/kg), 247.2 ± 35.6 /10 min. The “Times of activities in 2 h after drug administration/10 min” value (“Times of activities in 2 h” for short) in the experiment with Kunming mice [3] (25 mg/kg) was 278.5 ± 42.8 /10 min; in the experiment with Kunming mice [3] (50 mg/kg), 278.6 ± 47.5 /10 min; in the experiment on Kunming mice [3] (100 mg/kg) it was 225.3 ± 44.2 /10 min. In addition, the “Times of activities in 24 h after drug administration/10 min” value (“Times of activities in 24 h” for short) with Kunming mice [3] (25 mg/kg) was 302.8 ± 67.2 /10 min; in the experiment on Kunming mice [3] (50 mg/kg), 309.2 ± 81.3 /10 min; with Kunming mice [3] (100 mg/kg), 291.5 ± 69.5 /10 min.
In the case of `COc1ccc(-c2cc(=O)c3c(OC)c(OC)c(OC)c(OC)c3o2)cc1OC` [Example 14, 5,6,7,8,3′,4′-hexamethoxyl-flavone], the figures for the duration of sleep in the experiment with Kunming mice [1] (setting [4]), with Kunming mice [1] (setting [5]) and in the experiment on Kunming mice [1] (setting [6]) were 34.12 ± 28.26 min, 57.34 ± 19.33 min and 60.26 ± 32.36 min, respectively. For the same compound, the time to sleep was 4.78 ± 1.81 min in the experiment on Kunming mice [1] (setting [4]), 4.25 ± 1.55 min in the experiment with Kunming mice [1] (setting [5]) and 3.93 ± 1.57 min in the experiment on Kunming mice [1] (setting [6]). The figures for the “Number of sleeping animals” value with Kunming mice [2] (setting [7]), in the experiment on Kunming mice [2] (setting [8]) and in the experiment with Kunming mice [2] (setting [9]) were 4, 6 and 7, respectively. The “rate of sleeping (%)” value with Kunming mice [2] (setting [7]) was 40* %; in the experiment with Kunming mice [2] (setting [8]), 60** %; in the experiment on Kunming mice [2] (setting [9]), 70** %. The “Times of activities in 1 h” value in the experiment with Kunming mice [3] (25 mg/kg) is on record as 289.9 ± 42.3 /10 min; with Kunming mice [3] (50 mg/kg) it was 178.6 ± 40.2 /10 min; in the experiment with Kunming mice [3] (100 mg/kg) it was 159.1 ± 48.1 /10 min. The results for the “Times of activities in 2 h” value in the experiment with Kunming mice [3] (25 mg/kg), in the experiment with Kunming mice [3] (50 mg/kg) and in the experiment on Kunming mice [3] (100 mg/kg) were 281.1 ± 41.6 /10 min, 183.3 ± 51.3 /10 min and 133.9 ± 49.7 /10 min, respectively. Also, the “Times of activities in 24 h” value with Kunming mice [3] (25 mg/kg) is reported as 313.2 ± 74.4 /10 min; in the experiment on Kunming mice [3] (50 mg/kg), 324.7 ± 79.6 /10 min; with Kunming mice [3] (100 mg/kg), 322.6 ± 61.2 /10 min.
With `COc1cc(-c2cc(=O)c3c(OC)c(OC)c(OC)c(OC)c3o2)cc(OC)c1OC` [Example 15, 5,6,7,8,3′,4′,5′-heptamethoxyl-flavone], the duration of sleep with Kunming mice [1] (setting [4]) was 39.93 ± 15.22 min; with Kunming mice [1] (setting [5]), 51.53 ± 21.35 min; in the experiment on Kunming mice [1] (setting [6]), 58.25 ± 21.48 min. Also, the results for the time to sleep with Kunming mice [1] (setting [4]), with Kunming mice [1] (setting [5]) and in the experiment with Kunming mice [1] (setting [6]) were 4.31 ± 1.65 min, 3.53 ± 1.22 min and 3.29 ± 1.58 min, respectively. In addition, the entries for the “Number of sleeping animals” value in the experiment with Kunming mice [2] (setting [7]), with Kunming mice [2] (setting [8]) and in the experiment on Kunming mice [2] (setting [9]) were 3, 6 and 8, respectively. In addition, the “rate of sleeping (%)” value in the experiment with Kunming mice [2] (setting [7]) was 30%; in the experiment with Kunming mice [2] (setting [8]), 60** %; in the experiment with Kunming mice [2] (setting [9]), 80*** %. Also, the “Times of activities in 1 h” value is 287.1 ± 39.1 /10 min in the experiment with Kunming mice [3] (25 mg/kg), 254.7 ± 41.2 /10 min in the experiment on Kunming mice [3] (50 mg/kg) and 179.6 ± 44.3 /10 min in the experiment on Kunming mice [3] (100 mg/kg). The “Times of activities in 2 h” value in the experiment with Kunming mice [3] (25 mg/kg) is 255.1 ± 42.9 /10 min; with Kunming mice [3] (50 mg/kg), 239.9 ± 42.6 /10 min; in the experiment with Kunming mice [3] (100 mg/kg), 152.5 ± 36.9 /10 min. The results for the “Times of activities in 24 h” value in the experiment on Kunming mice [3] (25 mg/kg), in the experiment with Kunming mice [3] (50 mg/kg) and in the experiment with Kunming mice [3] (100 mg/kg) were 308.5 ± 75.2 /10 min, 317.4 ± 95.6 /10 min and 287.8 ± 89.1 /10 min, respectively.
Consider `O=c1cc(-c2cc(O)c(Oc3ccccc3)c(CCCCCCCCCCCCCCCCCCCCCl)c2)oc2cc(C#Cc3ccccc3)cc([N+](=O)[O-])c12` [Example 16], for which the values for the duration of sleep in the experiment with Kunming mice [1] (setting [4]), with Kunming mice [1] (setting [5]) and with Kunming mice [1] (setting [6]) were 25.69 ± 27.26 min, 48.11 ± 25.41 min and 55.62 ± 19.72 min, respectively. For the same compound, the time to sleep is on record as 5.48 ± 2.25 min in the experiment on Kunming mice [1] (setting [4]), 4.21 ± 1.53 min in the experiment with Kunming mice [1] (setting [5]) and 3.86 ± 1.45 min in the experiment on Kunming mice [1] (setting [6]). The “Number of sleeping animals” value came to 2 with Kunming mice [2] (setting [7]), 4 with Kunming mice [2] (setting [8]) and 6 in the experiment with Kunming mice [2] (setting [9]). Also, the “rate of sleeping (%)” value with Kunming mice [2] (setting [7]) is reported as 20%; in the experiment on Kunming mice [2] (setting [8]) it was 40* %; with Kunming mice [2] (setting [9]), 60** %. Besides, the “Times of activities in 1 h” value is 319.2 ± 55.4 /10 min in the experiment on Kunming mice [3] (25 mg/kg), 295.5 ± 41.3 /10 min in the experiment with Kunming mice [3] (50 mg/kg) and 273.4 ± 48.3 /10 min in the experiment with Kunming mice [3] (100 mg/kg). Further, the “Times of activities in 2 h” value in the experiment on Kunming mice [3] (25 mg/kg) is listed as 290.6 ± 41.2 /10 min; in the experiment with Kunming mice [3] (50 mg/kg), 250.4 ± 41.4 /10 min; in the experiment with Kunming mice [3] (100 mg/kg), 224.7 ± 46.3 /10 min. Further, the “Times of activities in 24 h” value is given as 313.5 ± 68.2 /10 min with Kunming mice [3] (25 mg/kg), 314.1 ± 82.3 /10 min with Kunming mice [3] (50 mg/kg) and 324.7 ± 79.7 /10 min in the experiment on Kunming mice [3] (100 mg/kg).
In the case of `C=Cc1cc(-c2cc(=O)c3c(C4CCSC4)cc(C(N)=O)cc3o2)cc(N)c1CC` (stereo not drawn) [Example 17], the figures for the duration of sleep in the experiment with Kunming mice [1] (setting [4]), with Kunming mice [1] (setting [5]) and in the experiment on Kunming mice [1] (setting [6]) were 32.56 ± 25.95 min, 45.62 ± 21.08 min and 57.86 ± 25.22 min, respectively. Further, the time to sleep was 5.55 ± 1.45 min in the experiment with Kunming mice [1] (setting [4]), 3.97 ± 1.26 min in the experiment with Kunming mice [1] (setting [5]) and 3.96 ± 1.14 min in the experiment on Kunming mice [1] (setting [6]). Also, the “Number of sleeping animals” value with Kunming mice [2] (setting [7]) is given as 3; in the experiment with Kunming mice [2] (setting [8]), 6; in the experiment on Kunming mice [2] (setting [9]) it was 7. Moreover, the “rate of sleeping (%)” value in the experiment on Kunming mice [2] (setting [7]) is recorded as 30%; in the experiment on Kunming mice [2] (setting [8]) it was 60** %; in the experiment on Kunming mice [2] (setting [9]), 70** %. For the same compound, the results for the “Times of activities in 1 h” value in the experiment with Kunming mice [3] (25 mg/kg), in the experiment with Kunming mice [3] (50 mg/kg) and with Kunming mice [3] (100 mg/kg) were 284.9 ± 49.3 /10 min, 176.6 ± 50.2 /10 min and 153.1 ± 38.4 /10 min, respectively. In addition, the “Times of activities in 2 h” value is given as 280.1 ± 42.7 /10 min in the experiment with Kunming mice [3] (25 mg/kg), 189.3 ± 57.3 /10 min with Kunming mice [3] (50 mg/kg) and 135.9 ± 48.7 /10 min with Kunming mice [3] (100 mg/kg). The “Times of activities in 24 h” value is 306.2 ± 81.3 /10 min in the experiment on Kunming mice [3] (25 mg/kg), 291.5 ± 70.0 /10 min with Kunming mice [3] (50 mg/kg) and 302.1 ± 89.0 /10 min in the experiment on Kunming mice [3] (100 mg/kg).
